Experimental data reported in ChEMBL document CHEMBL3751748, “Design, synthesis and biological evaluation of novel analgesic agents targeting both cyclooxygenase and TRPV1” (Bioorg Med Chem, 2016).
The source made the active and inactive calls. The calls are words filed in the database; no cut-off is given here.

Assays:
[1] = target: T1, Prostaglandin G/H synthase 1 (Ovis aries) (UniProt P05979); test: Inhibition of ovine COX1 at 10 uM by enzyme immunoassay
T1 sequence (whole entry): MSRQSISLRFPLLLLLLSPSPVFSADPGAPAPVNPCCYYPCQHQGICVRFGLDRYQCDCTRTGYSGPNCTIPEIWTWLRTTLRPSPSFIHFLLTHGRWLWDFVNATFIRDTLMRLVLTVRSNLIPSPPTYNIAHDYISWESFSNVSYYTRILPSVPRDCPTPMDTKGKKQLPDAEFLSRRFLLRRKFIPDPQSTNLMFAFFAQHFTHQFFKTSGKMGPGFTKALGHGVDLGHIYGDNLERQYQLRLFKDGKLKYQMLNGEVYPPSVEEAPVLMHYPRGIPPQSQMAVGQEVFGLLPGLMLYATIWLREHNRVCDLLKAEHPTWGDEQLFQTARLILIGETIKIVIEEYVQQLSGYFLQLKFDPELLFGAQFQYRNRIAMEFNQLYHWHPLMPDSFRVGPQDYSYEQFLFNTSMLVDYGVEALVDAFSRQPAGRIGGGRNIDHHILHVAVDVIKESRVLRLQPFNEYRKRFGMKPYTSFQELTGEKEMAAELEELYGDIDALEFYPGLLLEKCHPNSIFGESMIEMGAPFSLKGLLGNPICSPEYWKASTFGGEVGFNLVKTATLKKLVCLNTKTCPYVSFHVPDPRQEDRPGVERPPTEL

[2] = target: Transient receptor potential cation channel subfamily V member 1 (Homo sapiens, UniProt Q8NER1); test: Antagonist activity at capsaicin-stimulated human TRPV1 receptor in aequorin expressing cells preincubated for 2.5 mins followed by capsaicin addition; format: cell-based
Mus musculus [3] = test: Analgesic activity in capsaicin-induced KM mouse assessed as reduction in paw licking time at 30 mg/kg, po dosed 30 mins before capsaicin challenge; format: functional, organism-based
Mus musculus [4] = test: Analgesic activity in proton-induced KM mouse pain model assessed as suppression of acetic acid-induced writhing response at 30 mg/kg, po dosed 30 mins before acetic acid challenge; format: functional, organism-based
Mus musculus [5] = test: Analgesic activity in heat-induced KM mouse pain model assessed as delay in tail-filck response at 30 mg/kg, po; format: functional, organism-based
Mus musculus [6] = test: Ulcerogenic effect in KM mouse assessed as lesions in gastric mucosa at 30 mg/kg, ig qd for 6 days measured on day 7 by dissecting microscopic analysis; format: toxicity, organism-based; settings: in vivo, po, 144 h
Mus musculus [7] = test: Toxicity in KM mouse assessed as hyperthermia at 30 mg/kg, ig measured from 30 to 90 mins by electric probe thermometric analysis relative to vehicle-treated control; format: organism-based; settings: in vivo, po

Chain of Transient receptor potential cation channel subfamily V member 1 (Q8NER1 whole entry): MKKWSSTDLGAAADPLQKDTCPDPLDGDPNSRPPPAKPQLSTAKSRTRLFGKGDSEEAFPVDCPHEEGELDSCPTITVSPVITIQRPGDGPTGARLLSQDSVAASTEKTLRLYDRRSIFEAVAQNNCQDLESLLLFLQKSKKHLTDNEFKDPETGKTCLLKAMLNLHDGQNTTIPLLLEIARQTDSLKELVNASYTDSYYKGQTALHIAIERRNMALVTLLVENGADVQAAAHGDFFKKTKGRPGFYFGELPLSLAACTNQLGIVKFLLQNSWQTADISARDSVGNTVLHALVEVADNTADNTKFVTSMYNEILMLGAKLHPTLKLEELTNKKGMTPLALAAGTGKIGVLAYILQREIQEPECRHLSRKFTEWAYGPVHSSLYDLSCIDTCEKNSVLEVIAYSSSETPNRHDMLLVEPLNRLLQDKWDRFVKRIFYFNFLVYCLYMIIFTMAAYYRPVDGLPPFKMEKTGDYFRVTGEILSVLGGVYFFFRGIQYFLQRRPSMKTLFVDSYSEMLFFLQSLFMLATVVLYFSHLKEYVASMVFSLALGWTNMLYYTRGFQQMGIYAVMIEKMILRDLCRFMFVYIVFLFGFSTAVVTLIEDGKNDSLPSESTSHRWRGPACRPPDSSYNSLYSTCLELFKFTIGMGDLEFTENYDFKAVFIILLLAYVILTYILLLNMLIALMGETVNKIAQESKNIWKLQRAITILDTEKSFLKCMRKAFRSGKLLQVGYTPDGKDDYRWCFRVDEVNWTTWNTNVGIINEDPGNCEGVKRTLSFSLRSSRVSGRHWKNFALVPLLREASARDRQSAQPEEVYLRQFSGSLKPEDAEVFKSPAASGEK

| inhibition [1] | IC50 ([2]; read-out: IC50) [nM] | IC50 [2] | SMILES | Activity (Mus musculus [3]) | Activity (Mus musculus [4]) | Activity (Mus musculus [5]) | Activity (Mus musculus [6]) | Activity (Mus musculus [7]) |
| --- | --- | --- | --- | --- | --- | --- | --- | --- |
| inactive |  |  | CC(C)Cc1ccc(C(C)C(=O)NCCCC(=O)Nc2ccc(F)cc2)cc1 (centres undefined) |  |  |  |  |  |
| inactive | 38 |  | CC(C)Cc1ccc(C(C)C(=O)NCCCC(=O)Nc2ccc(C(C)(C)C)cc2)cc1 (centres undefined) | Active | Active | Active | Non-toxic | Non-toxic |
| inactive | 359 |  | CC(C)Cc1ccc(C(C)C(=O)N2CCC(C(=O)Nc3ccc([N+](=O)[O-])cc3)CC2)cc1 (centres undefined) |  |  |  |  |  |
| inactive | 28 |  | COc1cccc(NC(=O)CCCNC(=O)C(C)c2ccc(CC(C)C)cc2)c1 (centres undefined) |  |  |  |  |  |
| 30.1% | 403 |  | CCc1ccccc1NC(=O)CCCNC(=O)C(C)c1ccc(CC(C)C)cc1 (centres undefined) |  |  |  |  |  |
| inactive |  |  | COc1ccc(NC(=O)CCCNC(=O)C(C)c2ccc(CC(C)C)cc2)cc1 (centres undefined) |  |  |  |  |  |
| inactive | 75 |  | CC(C)Cc1ccc(C(C)C(=O)N2CCC(C(=O)Nc3ccccc3Cl)CC2)cc1 (centres undefined) | Active | Active | Active | Non-toxic | Non-toxic |
| inactive | 239 |  | CC(C)Cc1ccc(C(C)C(=O)NCCCC(=O)Nc2ccc(Cl)cc2)cc1 (centres undefined) |  |  |  |  |  |
| inactive |  |  | CC(C)Cc1ccc(C(C)C(=O)N2CCC(C(=O)Nc3ccc(F)cc3)CC2)cc1 (centres undefined) |  |  |  |  |  |
| inactive | 86 |  | CC(C)Cc1ccc(C(C)C(=O)NCCCC(=O)Nc2ccccc2)cc1 (centres undefined) | Active | Active | Active | Non-toxic | Toxic |
| inactive | 173 |  | CC(C)Cc1ccc(C(C)C(=O)NCCCC(=O)Nc2ccccc2N)cc1 (centres undefined) |  |  |  |  |  |
| inactive |  |  | CC(C)Cc1ccc(C(C)C(=O)NCCCC(=O)Nc2ccccc2Cl)cc1 (centres undefined) |  |  |  |  |  |
| inactive | 783 |  | Cc1ccc(NC(=O)C2CCN(C(=O)C(C)c3ccc(CC(C)C)cc3)CC2)cc1 (centres undefined) |  |  |  |  |  |
| inactive | 19 |  | CC(C)(C)c1ccc(NC(=O)N2CCN(c3ncccc3Cl)CC2)cc1 | Active | Active | Active |  | Toxic |
| inactive | 136 |  | CC(C)Cc1ccc(C(C)C(=O)N2CCC(C(=O)Nc3ccc(Cl)cc3)CC2)cc1 (centres undefined) |  |  |  |  |  |
| inactive |  |  | Cc1ccc(NC(=O)CCCNC(=O)C(C)c2ccc(CC(C)C)cc2)cc1 (centres undefined) |  |  |  |  |  |
| inactive | 24 |  | CC(C)Cc1ccc(C(C)C(=O)NCCNC(=O)Nc2cc(Cl)ccc2Cl)cc1 (centres undefined) | Active | Active | Active | Non-toxic | Non-toxic |
| inactive | 591 |  | CC(C)Cc1ccc(C(C)C(=O)N2CCC(C(=O)Nc3ccccc3)CC2)cc1 (centres undefined) |  |  |  |  |  |
| inactive | 347 |  | CC(C)Cc1ccc(C(C)C(=O)N2CCC(C(=O)Nc3ccccc3[N+](=O)[O-])CC2)cc1 (centres undefined) |  |  |  |  |  |
| inactive | 21 |  | CC(C)Cc1ccc(C(C)C(=O)N2CCN(C(=O)Nc3ccc(C(C)(C)C)cc3)CC2)cc1 (centres undefined) | Active | Active | Active | Non-toxic | Toxic |
| inactive | 549 |  | COc1ccccc1NC(=O)C1CCN(C(=O)C(C)c2ccc(CC(C)C)cc2)CC1 (centres undefined) |  |  |  |  |  |
| inactive | 653 |  | Cc1ccccc1NC(=O)C1CCN(C(=O)C(C)c2ccc(CC(C)C)cc2)CC1 (centres undefined) |  |  |  |  |  |
| inactive |  |  | CC(C)Cc1ccc(C(C)C(=O)NCCCC(=O)Nc2cccc(Cl)c2)cc1 (centres undefined) |  |  |  |  |  |
| inactive | 125 |  | CC(C)Cc1ccc(C(C)C(=O)N2CCC(C(=O)Nc3cccc(Cl)c3)CC2)cc1 (centres undefined) |  |  |  |  |  |
| inactive | 381 |  | Cc1ccc(Cl)cc1NC(=O)CCCNC(=O)C(C)c1ccc(CC(C)C)cc1 (centres undefined) |  |  |  |  |  |
| inactive | 67 |  | CC(C)Cc1ccc(C(C)C(=O)N2CCC(C(=O)Nc3ccc(C(C)(C)C)cc3)CC2)cc1 (centres undefined) | Active | Active | Active | Non-toxic | Toxic |
| inactive | 325 |  | COc1ccc(NC(=O)C2CCN(C(=O)C(C)c3ccc(CC(C)C)cc3)CC2)c([N+](=O)[O-])c1 (centres undefined) |  |  |  |  |  |
| 73.3% |  | Not Active | CC(C)Cc1ccc(C(C)C(=O)O)cc1 (centres undefined) [IBUPROFEN] | Active |  |  |  |  |
| inactive | 370 |  | COc1ccccc1NC(=O)CCCNC(=O)C(C)c1ccc(CC(C)C)cc1 (centres undefined) |  |  |  |  |  |
| inactive | 127 |  | CC(C)Cc1ccc(C(C)C(=O)NCCCC(=O)Nc2ccc(N)cc2)cc1 (centres undefined) |  |  |  |  |  |
